In patent US20230057568A1, “COMPOUNDS FOR TREATING FAMILIAL DYSAUTONOMIA” (PTC THERAPEUTICS, INC., priority 2019, published 2023):

System: Elongator complex protein 1 (ELP1, also referred to as IKBKAP)
Assay: IKBKAP-HTRF Assay
Format: cell-based, human
Details: FD patient-derived fibroblasts GM04589, 48 hours incubation; for EC2x for IKBKAP protein expression (concentration producing two times the amount of IKBKAP protein vs DMSO vehicle control): 7-point concentration curve; for MFI (maximum fold increase in IKBKAP protein abundance relative to the vehicle control): HTRF
Experimental: The assay is used for the quantitative determination of Elongator complex protein 1 (ELP1, also referred to as IKBKAP) concentration in cell lysates using the HTRF® (Homogeneous Time-Resolved Fluorescence) technology. IKBKAP is detected in a sandwich HTRF assay by use of an anti-IKAP antibody labeled with a donor and an anti-IKAP antibody labeled with an acceptor.
Cells were thawed and incubated in DMEM-10% FBS for 72 hours. Cells were trypsinized, counted, and re-suspended to a concentration of 50,000 cells/mL in DMEM-10% FBS. A 199 μL, aliquot of the cell suspensions were plated at 10,000 cells per well in a 96 well microtiter plate and incubated for 3 to 5 hours. […] Test compounds were serially diluted 3.16-fold in 100% DMSO to generate a 7-point concentration curve. A 1 μL aliquot of 200× compound solution was transferred to cell-containing wells, and cells were incubated for 48 hours in a cell culture incubator (37° C., 5% CO2, 100% relative humidity). Triplicate samples were set up for each compound concentration. After 48 hours, the supernatant was removed from the cells and 50 μL of the 1× LB4 lysis buffer, containing protease inhibitors, was added to the cells and incubated with shaking at room temperature for 1 hour. A 36 μL aliquot of this lysate was subsequently transferred to the 384-well plate containing 4 μL of the antibody solution (1:50 dilution of anti IKAP d2 and anti-IKAP K(9+8) in detection buffer). The 384-well plate was then centrifuged for 1 minute to bring the solutions to the bottom of the plate and incubated overnight at 4° C. Fluorescence for each well of the plate at 665 nm and 620 nm was measured was on the EnVision plate reader (Perkin Elmer). The AF for each sample is calculated by: […]
wherein Signal is the normalized fluorescence for each sample well and Blank is the average normalized average fluorescence for the Blank control wells.
The maximum fold increase (MFI) in IKBKAP protein abundance for compounds of Formula (I) or a form thereof relative to the vehicle control are provided in Table 1. MFI was calculated by dividing the AF value for each sample well by the sample AF for the vehicle control wells.
The EC2× for IKBKAP protein expression obtained from the 7-point concentration curve generated for each test compound according to the protocol in Biological Example 1 are also provided in Table 1. The term “EC2× for IKBKAP protein expression” is defined as the concentration of test compound that is effective in producing two times the amount of IKBKAP protein in a FD patient cell compared to the amount produced from the DMSO vehicle control.

## Cc1cnc(CNc2nc(Cl)nc3c(C)c(C[C@H](C)N)sc23)s1 [Cpd 31, 6-[(2S)-2-aminopropyl]-2-chloro-7-methyl-N-[(5-methyl-1,3-thiazol-2-yl)methyl]thieno[3,2-d]pyrimidin-4-amine]
  EC2x for IKBKAP protein expression (concentration producing two times the amount of IKBKAP protein vs DMSO vehicle control): *** (between >0.02 μM and ≤0.5 μM)
  MFI (maximum fold increase in IKBKAP protein abundance relative to the vehicle control): *** (between >2.9 and <3.9)

## Cc1c(C[C@H](C)N)sc2c(NCc3ccccc3F)nc(Cl)nc12 [Cpd 44, 6-[(2S)-2-aminopropyl]-2-chloro-N-[(2-fluorophenyl)methyl]-7-methylthieno[3,2-d]pyrimidin-4-amine]
  EC2x for IKBKAP protein expression (concentration producing two times the amount of IKBKAP protein vs DMSO vehicle control): ***** (<0.005 μM)
  MFI (maximum fold increase in IKBKAP protein abundance relative to the vehicle control): ***** (>4.9)

## C[C@H](N)Cc1cc2ncnc(NCc3ccco3)c2s1 [Cpd 8, 6-[(2S)-2-aminopropyl]-N-[(furan-2-yl)methyl]thieno[3,2-d]pyrimidin-4-amine]
  EC2x for IKBKAP protein expression (concentration producing two times the amount of IKBKAP protein vs DMSO vehicle control): *** (between >0.02 μM and ≤0.5 μM)
  MFI (maximum fold increase in IKBKAP protein abundance relative to the vehicle control): *** (between >2.9 and <3.9)

## C[C@H](N)Cc1sc2c(NCc3cccs3)nc(C#N)nc2c1Br [Cpd 83, 6-[(2S)-2-aminopropyl]-7-bromo-4-{[(thiophen-2-yl)methyl]amino}thieno[3,2-d]pyrimidine-2-carbonitrile]
  EC2x for IKBKAP protein expression (concentration producing two times the amount of IKBKAP protein vs DMSO vehicle control): **** (between >0.005 μM and ≤0.02 μM)
  MFI (maximum fold increase in IKBKAP protein abundance relative to the vehicle control): ***** (>4.9)

## Cc1c(C[C@H](C)N)sc2c(NCc3cnco3)nc(Cl)nc12 [Cpd 75, 6-[(2S)-2-aminopropyl]-2-chloro-7-methyl-N-[(1,3-oxazol-5-yl)methyl]thieno[3,2-d]pyrimidin-4-amine]
  EC2x for IKBKAP protein expression (concentration producing two times the amount of IKBKAP protein vs DMSO vehicle control): *** (between >0.02 μM and ≤0.5 μM)
  MFI (maximum fold increase in IKBKAP protein abundance relative to the vehicle control): ***** (>4.9)

## CN[C@@H](C)Cc1sc2c(NCc3ccco3)nc(Cl)nc2c1C [Cpd 79, 2-chloro-N-[(furan-2-yl)methyl]-7-methyl-6-[(2S)-2-(methylamino)propyl]thieno[3,2-d]pyrimidin-4-amine]
  EC2x for IKBKAP protein expression (concentration producing two times the amount of IKBKAP protein vs DMSO vehicle control): *** (between >0.02 μM and ≤0.5 μM)
  MFI (maximum fold increase in IKBKAP protein abundance relative to the vehicle control): **** (between >3.9 and <4.9)

## Cc1c(C[C@@H](N)CCO)sc2c(NCc3ccco3)nc(Cl)nc12 [Cpd 97, (3S)-3-amino-4-(2-chloro-4-{[(furan-2-yl)methyl]amino}-7-methylthieno[3,2-d]pyrimidin-6-yl)butan-1-ol]
  EC2x for IKBKAP protein expression (concentration producing two times the amount of IKBKAP protein vs DMSO vehicle control): ***** (<0.005 μM)
  MFI (maximum fold increase in IKBKAP protein abundance relative to the vehicle control): ***** (>4.9)

## Cc1c(C[C@H](C)CO)sc2c(NCc3ccco3)nc(Cl)nc12 [Cpd 66, (2S)-3-(2-chloro-4-{[(furan-2-yl)methyl]amino}-7-methylthieno[3,2-d]pyrimidin-6-yl)-2-methylpropan-1-ol]
  EC2x for IKBKAP protein expression (concentration producing two times the amount of IKBKAP protein vs DMSO vehicle control): * (EC2×>1 μM)
  MFI (maximum fold increase in IKBKAP protein abundance relative to the vehicle control): * (MFI<1.9)

## Cc1c(C[C@@H]2CCOC(=O)N2)sc2c(NCc3ccco3)nc(Cl)nc12 [Cpd 52, (4S)-4-[(2-chloro-4-{[(furan-2-yl)methyl]amino}-7-methylthieno[3,2-d]pyrimidin-6-yl)methyl]-1,3-oxazinan-2-one]
  EC2x for IKBKAP protein expression (concentration producing two times the amount of IKBKAP protein vs DMSO vehicle control): * (EC2×>1 μM)
  MFI (maximum fold increase in IKBKAP protein abundance relative to the vehicle control): ** (between >1.9 and <2.9)

## Cc1c(C[C@H](C)N)sc2c(NCc3ncccn3)nc(Cl)nc12 [Cpd 55, 6-[(2S)-2-aminopropyl]-2-chloro-7-methyl-N-[(pyrimidin-2-yl)methyl]thieno[3,2-d]pyrimidin-4-amine]
  EC2x for IKBKAP protein expression (concentration producing two times the amount of IKBKAP protein vs DMSO vehicle control): *** (between >0.02 μM and ≤0.5 μM)
  MFI (maximum fold increase in IKBKAP protein abundance relative to the vehicle control): *** (between >2.9 and <3.9)

## CC[C@H](N)Cc1cc2nc(Cl)nc(NCc3ccco3)c2s1 [Cpd 4, 6-[(2S)-2-aminobutyl]-2-chloro-N-[(furan-2-yl)methyl]thieno[3,2-d]pyrimidin-4-amine]
  EC2x for IKBKAP protein expression (concentration producing two times the amount of IKBKAP protein vs DMSO vehicle control): **** (between >0.005 μM and ≤0.02 μM)
  MFI (maximum fold increase in IKBKAP protein abundance relative to the vehicle control): **** (between >3.9 and <4.9)

## CC[C@H](N)Cc1sc2c(NCc3ccns3)nc(Cl)nc2c1C [Cpd 62, 6-[(2S)-2-aminobutyl]-2-chloro-7-methyl-N-[(1,2-thiazol-5-yl)methyl]thieno[3,2-d]pyrimidin-4-amine]
  EC2x for IKBKAP protein expression (concentration producing two times the amount of IKBKAP protein vs DMSO vehicle control): **** (between >0.005 μM and ≤0.02 μM)
  MFI (maximum fold increase in IKBKAP protein abundance relative to the vehicle control): ***** (>4.9)

## Cc1c(CCCO)sc2c(NCc3ccco3)nc(Cl)nc12 [Cpd 63, 3-(2-chloro-4-{[(furan-2-yl)methyl]amino}-7-methylthieno[3,2-d]pyrimidin-6-yl)propan-l-ol]
  EC2x for IKBKAP protein expression (concentration producing two times the amount of IKBKAP protein vs DMSO vehicle control): * (EC2×>1 μM)
  MFI (maximum fold increase in IKBKAP protein abundance relative to the vehicle control): * (MFI<1.9)

## CC[C@H](N)Cc1sc2c(NCc3cccs3)nc(Cl)nc2c1C [Cpd 37, 6-[(2S)-2-aminobutyl]-2-chloro-7-methyl-N-[(thiophen-2-yl)methyl]thieno[3,2-d]pyrimidin-4-amine]
  EC2x for IKBKAP protein expression (concentration producing two times the amount of IKBKAP protein vs DMSO vehicle control): ***** (<0.005 μM)
  MFI (maximum fold increase in IKBKAP protein abundance relative to the vehicle control): ***** (>4.9)

## C[C@H](N)Cc1cc2nc(Cl)nc(NCc3ccncc3)c2s1 [Cpd 9, 6-[(2S)-2-aminopropyl]-2-chloro-N-[(pyridin-4-yl)methyl]thieno[3,2-d]pyrimidin-4-amine]
  EC2x for IKBKAP protein expression (concentration producing two times the amount of IKBKAP protein vs DMSO vehicle control): **** (between >0.005 μM and ≤0.02 μM)
  MFI (maximum fold increase in IKBKAP protein abundance relative to the vehicle control): ***** (>4.9)

## C[C@H](N)Cc1cc2nc(Cl)nc(NCc3ccco3)c2s1 [Cpd 3, 6-[(2S)-2-aminopropyl]-2-chloro-N-[(furan-2-yl)methyl]thieno[3,2-d]pyrimidin-4-amine]
  EC2x for IKBKAP protein expression (concentration producing two times the amount of IKBKAP protein vs DMSO vehicle control): **** (between >0.005 μM and ≤0.02 μM)
  MFI (maximum fold increase in IKBKAP protein abundance relative to the vehicle control): **** (between >3.9 and <4.9)

## Clc1nc(NCc2nccs2)c2sccc2n1 [Cpd 96, 2-chloro-N-[(1,3-thiazol-2-yl)methyl]thieno[3,2-d]pyrimidin-4-amine]
  EC2x for IKBKAP protein expression (concentration producing two times the amount of IKBKAP protein vs DMSO vehicle control): * (EC2×>1 μM)
  MFI (maximum fold increase in IKBKAP protein abundance relative to the vehicle control): ** (between >1.9 and <2.9)

## Cc1c(C[C@@H](N)CCF)sc2c(NCc3ccco3)nc(Cl)nc12 [Cpd 51, 6-[(2S)-2-amino-4-fluorobutyl]-2-chloro-N-[(furan-2-yl)methyl]-7-methylthieno[3,2-d]pyrimidin-4-amine]
  EC2x for IKBKAP protein expression (concentration producing two times the amount of IKBKAP protein vs DMSO vehicle control): ***** (<0.005 μM)
  MFI (maximum fold increase in IKBKAP protein abundance relative to the vehicle control): ***** (>4.9)

## C[C@H](N)Cc1sc2c(NCc3ccco3)nc(Cl)nc2c1C1CC1 [Cpd 36, 6-[(2S)-2-aminopropyl]-2-chloro-7-cyclopropyl-N-[(furan-2-yl)methyl]thieno[3,2-d]pyrimidin-4-amine]
  EC2x for IKBKAP protein expression (concentration producing two times the amount of IKBKAP protein vs DMSO vehicle control): **** (between >0.005 μM and ≤0.02 μM)
  MFI (maximum fold increase in IKBKAP protein abundance relative to the vehicle control): ***** (>4.9)

## Clc1nc(NCc2ccncn2)c2sccc2n1 [Cpd 95, 2-chloro-N-[(pyrimidin-4-yl)methyl]thieno[3,2-d]pyrimidin-4-amine]
  EC2x for IKBKAP protein expression (concentration producing two times the amount of IKBKAP protein vs DMSO vehicle control): * (EC2×>1 μM)
  MFI (maximum fold increase in IKBKAP protein abundance relative to the vehicle control): *** (between >2.9 and <3.9)
